Experimental data taken from patent US20190150438A1, “CONFIGURATIONAL STEREOISOMER OF DIFETHIALONE, COMPOSITION AND RODENTICIDE BAIT COMPRISING SAME, AND METHOD FOR CONTROLLING TARGET RODENT PESTS” (priority 2015, published 2019).

Assay: Hepatic content in dead rats by high-pressure liquid chromatography on a chiral column
Type: in vivo, rat
Procedure: About 0.525 g (±0.025 g) of rat liver is weighed out accurately and placed in a 50 mL polypropylene tube. 10 mL of acetone are added and the suspension is homogenized using an Ultra-Turrax® homogenizer/disperser for a time of about 30 seconds. The homogenizer/disperser shaft is rinsed with hot water and then twice with 20 mL of acetone in a polypropylene tube. The homogenate is centrifuged for 5 minutes at a centrifugation speed of 3000 rpm (revolutions per minute). The supernatant is collected and transferred into a test tube. The sample is subjected to evaporation under a stream of nitrogen (N2) at a temperature of 40° C. so as to form a dry extract.
1 mL of acetonitrile is added to the tube containing the dry extract so as to dissolve it. […]
The solution containing difethialone is analysed by high-pressure liquid chromatography on a LUX® Cellulose-3 chiral column (Phenomenex, Le Pecq, France) (150×2 mm, particle size of 3 μm) as described in point A2) above.
The measured values, expressed as micrograms of dextrorotatory enantiomer of said hetero-stereoisomer (“DFN-Hetero-dextro”) per gram of liver, are given in table 2 below.
The hepatic content of the dextrorotatory enantiomer of said hetero-stereoisomer of difethialone in each of the rats which die between D5 and D8 is measured by high-pressure liquid chromatography analysis on a chiral column. […]

O=c1sc2ccccc2c(O)c1C1CC(c2ccc(-c3ccc(Br)cc3)cc2)Cc2ccccc21 (centres unmarked) [Total difethialone, 3-(4′-bromobiphenyl-4-yl)-1-(4-hydroxythiocoumarin-3-yl)-1,2,3,4-tetrahydronaphthalene]
Hepatic content, mean (liver of rats which die between D5 and D8 after 10.6 ppm bait): 15.113 µg/g
Hepatic content, mean (liver of rats which die between D9 and D13 after 3.7 ppm bait): 5.372 µg/g
